Data published in US20250073234A1, “COMBINATION THERAPIES INCLUDING PARP1 INHIBITORS” (Cornell University, priority 2022, published 2025).

Key:
[1] = test system: c-FOS and c-JUN at the AP-1A site of the SQSTM1 promoter; assay: ChIP-PCR of SQSTM1 promoter (AP-1A) occupancy in WPMY-1 cells; assay type: cell-based, human; conditions: 48 h
Procedure: WPMY-1 cells were fixed by adding directly to the culture medium formaldehyde (HCHO; from a 37% HCHO-10% methanol stock, Calbiochem) to a final concentration of 1%. […] Chromatin was sheared in a COVARIS S220 Focused-ultrasonicator to yield DNA fragment sizes of 200-1000 base pairs, and diluted 10 times in dilution buffer (20 mM Tris pH 8.0, 2 mM EDTA, 1% triton X-100, 150 mM NaCl and protease inhibitors). Immunoprecipitations were carried out overnight at 4° C. using the following protein A-antibodies complexes: cFOS, FOSB, cJUN, JUNB.
Immunocomplexes were washed three times with buffer TSEI (20 mM Tris pH 8.0, 2 mM EDTA, 1% triton X-100, 150 mM NaCl, 0.1% SDS and protease inhibitors), three washes with buffer TSEII (20 mM Tris pH 8.0, 2 mM EDTA, 1% triton X-100, 500 mM NaCl, 0.1% SDS and protease inhibitors), one wash with buffer TSEIII (10 mM Tris pH 8.0, 250 mM LiCl, 1 mM EDTA, 1% NP40, 1% Deoxycholate and protease inhibitors) and one wash with TE pH 8.0.
Immunocomplexes were extracted in TE containing 1% SDS, and protein-DNA cross-links were reverted by heating at 65° C. overnight. DNA was extracted by using a PCR purification kit (Qiagen). One-tenth of the immunoprecipitated DNA was used in each PCR, for which the promoter-specific primers were used.

[2] = test system: p62 (SQSTM1) in WPMY-1 cells; assay: p62/SQSTM1 expression in WPMY-1 stromal fibroblasts (immunoblot, qPCR); assay type: cell-based, human
Excerpt: To knock out PARP-1 in WPMY-1 cells, single-guide RNA sequences targeting PARP-1 exon2 were purchased from Synthego and transduced into WPMY-1 cells with recombinant Streptococcus pyogenes Cas9 protein (Truecut Cas9 Protein v2, Thermo), using the Neon Transfection System 1 (Invitrogen) following the manufacturer's protocol and single clones were expanded and screened by protein immunoblotting. To perform AP1-A binding site editing in the SQSTM promoter in WPMY-1 cells, single-guide RNA sequences targeting the human AP1-A binding site (Synthego) was transduced into cells with a Cas9 protein and a single-stranded donor oligonucleotide (ssODN, IDT) using Neon Electroporation System. Single clones were expanded and screened for AP1-A editing by Sanger sequencing. A point mutation to disrupt the API enhancer element in the p62 promoter was introduced by Site Directed Mutagenesis (Stratagene). Knockdown of MCT1, MCT4, FOS, PARP1, PARP2, CD38, ATG5, and SIRT1-7 genes in WPMY-1 cells were achieved by siRNA transfection using Lipofectamine RNAiMAX Transfection Reagent (Invitrogen). Transient overexpression was achieved by transfection using X-tremeGENE HP transfection reagent (Roche). Transfected cells were examined 48 hours after transfection. Establishing stably GFP or RFP expressing cells was achieved by lentivirus-mediated transduction. Lentivirus were produced in HEK293T cells using X-tremeGENE HP transfection reagent (Roche). Virus-containing supernatants were collected 48, 72 and 96 hours after transfection, filtered to eliminate cells, and supplemented with 8 μg/ml polybrene. Cells were infected with three rounds of viral supernatants and selected with puromycin (3 μg/ml). For autophagy or proteasome inhibition, WPMY-1 cells were treated for 12 hours with 100 nM bafilomycin Al or 12 hours with 20 μM of MG132, respectively, or vehicle (DMSO). […] For MCT1 inhibition, WPMY-1 cells were treated for 48 hours with 10 μM of AZD3965. For cJUN inhibition, WPMY-1 cells were treated for 48 hours with 10 μM of SP600125. For calpains and caspases inhibition, WPMY-1 cells were treated for 48 hours with 1-20 μM of Calpeptin (Tocris) or z-VAD-FMK (Tocris), respectively. For protein synthesis inhibition, WPMY-1 cells were treated with 50 μg/ml of cycloheximide (Sigma). Conditioned media (CM) was generated by collecting supernatant on day 3. CM was transferred to a 15 ml BD Falcon tube and centrifuged at 1300 rpm for 10 minutes. The supernatant was sterile filtered using a […] (Millex-GV) with a 10 ml syringe barrel. The samples were stored at […] for future experiments. Fractionation of the CM was achieved using Amicon Ultra centrifugal filters (3KUltracel, Millipore). The supernatant was centrifuged at 4000 rpm for 1 hour. The supernatant fraction that was >3 kDa remained above the filter and that which was <3 kDa passed through to the lower chamber. The >3-kDa fraction was resuspended in DMEM to the pre-filtration volume.

## NC(=O)c1ccc[n+]([C@@H]2O[C@H](COP(=O)([O-])OP(=O)(O)OC[C@H]3O[C@@H](n4cnc5c(N)ncnc54)[C@H](O)[C@@H]3O)[C@@H](O)[C@H]2O)c1 [NAD^+]
[1]; added to lactate-treated WPMY-1 cells
  recruitment of c-FOS and c-JUN to the AP-1 regulatory site in lactate-treated cells: rescued
[2]; lactate-treated WPMY-1 cells, 48 h, NAD 150 μM, NR 200 μM
  rescue of lactate-induced reduction in p62: completely rescued the lactate-induced reduction in p62

## O=C(c1cc(Cc2n[nH]c(=O)c3ccccc23)ccc1F)N1CCN(C(=O)C2CC2)CC1 [Olaparib]
[1]; Olaparib 20 μM
  recruitment of c-FOS and c-JUN to the AP-1A binding site in the SQSTM1 promoter: impaired the recruitment of c-FOS and c-JUN
[2]; WPMY-1 cells, basal and ADT conditions
  SQSTM1 mRNA levels: reduced SQSTM1 mRNA levels
[2]; WPMY-1 cells, PJ34 24 h, Olaparib 48 h
  p62 expression (protein, SQSTM1 mRNA): reduced the expression of p62 in a dose-dependent manner
